The subject of one data set is SMMC-7721. The data set is described as follows: Antitumor activity against human SMMC-7721 cells xenografted in mouse model assessed as tumor growth inhibition at 20 mg/kg,ip administrated for 3 weeks. It counts as functional. As to conditions: SMMC-7721, 504 h.
For data set [1], the system named is Quadruplex DNA. The data set is described as follows: Binding affinity to c-MYC G-quadruplex DNA (unknown origin) assessed as association constant by fluorescence spectroscopy. Format: nucleic-acid assay.
For data set [2], the system named is HeLa. The data set is described as follows: Antiproliferative activity against human HeLa cells assessed as inhibition of cell growth by XTT assay. It counts as functional, cell-based. (In general: Tetrazolium dyes change colour on reduction, which living cells bring about.)
The test system of a further data set is A549. The data set is described as follows: Antiproliferative activity against human A549 cells assessed as inhibition of cell growth by XTT assay. It counts as functional, cell-based.
Data set [3] in a line: Antiproliferative activity against human Kidney epithelial cells assessed as inhibition of cell growth by XTT assay. Format: toxicity, cell-based.
Data set [4] has as its system Quadruplex DNA. The data set is described as follows: Thermal stabilization of c-MYC G-quadruplex DNA (unknown origin) assessed as change in melting temperature at 1:5 ratio by FRET melting assay. Format: nucleic-acid assay.
For data set [5], the system named is Quadruplex DNA. As to the kind of experiment: Binding affinity to c-MYC G-quadruplex DNA (unknown origin) assessed as association rate constant by UV-Vis spectroscopy. Format: nucleic-acid assay.
Data set [6] concerns Quadruplex DNA. As to the kind of experiment: Thermal stabilization of c-MYC G-quadruplex DNA (unknown origin) assessed as change in melting temperature at 1:3 ratio by circular dichroism spectroscopy. Format: nucleic-acid assay. (Circular dichroism is the unequal absorption of left and right circularly polarised light.)
In data set [7] the test system is Quadruplex DNA. The data set is described as follows: Binding affinity to c-MYC G-quadruplex DNA (unknown origin) assessed as second order binding constant by surface plasmon resonance analysis. Format: nucleic-acid assay.
In the next data set the test system is CA46. The data set is described as follows: Cytotoxicity against human CA46 cells assessed as reduction in cell viability by MTS assay. Format: functional, cell-based.
In data set [8] the test system is Quadruplex DNA. As to the kind of experiment: Binding affinity to c-MYC G-quadruplex DNA (unknown origin) assessed as first order binding constant by surface plasmon resonance analysis. It counts as nucleic-acid assay.
The test system of the next data set is Raji. As to the kind of experiment: Cytotoxicity against human Raji cells assessed as reduction in cell viability by MTS assay. It counts as functional, cell-based.
Data set [9] deals with Quadruplex DNA. The data set is described as follows: Thermal stabilization of c-MYC G-quadruplex (Pu47) DNA (unknown origin) assessed as change in melting temperature at 1:5 ratio by FRET melting assay. It counts as nucleic-acid assay.
In data set [10] the test system is Quadruplex DNA. As to the kind of experiment: Binding affinity to c-MYC G-quadruplex DNA (unknown origin) assessed as association rate constant by isothermal titration calorimetry method. It counts as nucleic-acid assay.
In data set [11] the test system is Quadruplex DNA. The data set is described as follows: Binding affinity to c-MYC G-quadruplex (Mer22) DNA (unknown origin) assessed as first order binding constant by isothermal titration calorimetry method. It counts as nucleic-acid assay.
Data set [12] deals with Quadruplex DNA. The data set is described as follows: Binding affinity to c-MYC G-quadruplex (Mer22) DNA (unknown origin) assessed as second order binding constant by isothermal titration calorimetry method. It counts as nucleic-acid assay. (In ITC the heat of successive injections is recorded.)
Data set [13] concerns Quadruplex DNA. As to the kind of experiment: Thermal stabilization of c-MYC G-quadruplex (Mer22) DNA (unknown origin) assessed as change in melting temperature at 1:3 ratio by FRET melting assay. It counts as nucleic-acid assay.
The subject of data set [14] is Quadruplex DNA. As to the kind of experiment: Thermal stabilization of c-MYC G-quadruplex (Mer22) DNA (unknown origin) assessed as change in melting temperature at 1:3 ratio by UV-Vis spectroscopy. It counts as nucleic-acid assay.
The subject of data set [15] is Quadruplex DNA. As to the kind of experiment: Binding affinity to c-MYC G-quadruplex (Mer22) DNA (unknown origin) assessed as association rate constant by surface plasmon resonance analysis. It counts as nucleic-acid assay.
The next data set relates to HCT-116. As to the kind of experiment: Antiproliferative activity against human HCT-116 cells assessed as inhibition of cell growth incubated for 24 hrs by XTT assay. It counts as functional, cell-based. As to conditions: HCT-116, 24 h.
The test system of data set [16] is HeLa. The data set is described as follows: Antiproliferative activity against human HeLa cells assessed as inhibition of cell growth incubated for 24 hrs by XTT assay. It counts as functional, cell-based.
Data set [17] can be described thus: Antiproliferative activity against human Kidney epithelial cells assessed as inhibition of cell growth incubated for 24 hrs by XTT assay. Format: toxicity, cell-based.
In data set [18] the test system is Quadruplex DNA. As to the kind of experiment: Thermal stabilization of c-MYC G-quadruplex DNA (unknown origin) assessed as change in melting temperature at 1:1 ratio in presence of K+ by FRET melting assay. Format: nucleic-acid assay.
Data set [19] concerns Quadruplex DNA. As to the kind of experiment: Thermal stabilization of c-MYC G-quadruplex DNA (unknown origin) assessed as change in melting temperature at 1:1 ratio in absence of K+ by FRET melting assay. Format: nucleic-acid assay.
The test system of data set [20] is Quadruplex DNA. As to the kind of experiment: Binding affinity to c-MYC G-quadruplex (Mer22) DNA (unknown origin) assessed as binding rate constant by surface plasmon resonance analysis. Format: nucleic-acid assay.

The results in this text go back to ChEMBL document CHEMBL5096149, “Recent Update on Targeting c-MYC G-Quadruplexes by Small Molecules for Anticancer Therapeutics” (J Med Chem, 2021).

Consider `CN(C)CCCNCCC(=O)Nc1ccc(C(=O)Nc2cc(Cl)ccc2-c2nc(NCCCN(C)C)c3ccccc3n2)cc1`, for which the inhibition in vivo (usually the share of the control response that was lost under treatment) at 20 mg/kg with SMMC-7721 amounted to 58.2%.
`CC1=CC2(c3cc(C)ccn3)C(=O)C=C(c3ccc4ccccc4c3)N2C=C1` (stereo unspecified): in the data set on Quadruplex DNA [1], the Ka is 1 10^6/M.
As to `CN(C)CCCNC(=O)c1csc(NC(=O)c2csc(NC(=O)c3csc(N)n3)n2)n1`, the values for the half-maximal inhibitory concentration (IC50) (with HeLa [2]; in the data set on A549; in data set [3]) were 3.8 µM, 3.2 µM and above 50 µM, respectively. In the data set with Quadruplex DNA [1], the Ka is 4 10^6/M. In the data set on Quadruplex DNA [4], the ΔTm – broadly, the change in melting temperature against a reference sample – turned out to be 22 °C.
Regarding `CN(C)CCn1c(NC(=O)c2ccc3ccc4ccc(C(=O)Nc5nc6ccccc6n5CCN(C)C)nc4c3n2)nc2ccccc21`, the Ka in the data set on Quadruplex DNA [5] was 2.41 10^5/M. In the data set on Quadruplex DNA [6], the thermal shift (ΔTm) worked out at 19.6 °C.
Turning to `Cc1c2ccncc2c(C)c2c1[nH]c1ccc(OCCN(C)C)cc12`, the figures for the K in the data set with Quadruplex DNA [7] and in the data set on Quadruplex DNA [8] were 0.7 10^6/M and 1 10^7/M, respectively. Further, the concentration for half-maximal inhibition (IC50) (usually the concentration needed to halve the response being measured) with CA46 was 13 µM; with Raji, 2.6 µM. Besides, in the data set on Quadruplex DNA [9], the ΔTm is 21 °C.
For the compound `C[n+]1cccc(-c2cc3c4cc(-c5ccc[n+](C)c5)c5nc(C(F)(F)C(F)(F)C(F)(F)F)nc6c(-c7ccc[n+](C)c7)cc(c7cc(-c8ccc[n+](C)c8)c8nc(C(F)(F)C(F)(F)C(F)(F)F)nc2c8c37)c4c56)c1`, the Ka with Quadruplex DNA [5] is 2.38 10^7/M; in the data set with Quadruplex DNA [1], 2.31 10^7/M; in the data set on Quadruplex DNA [10], 1.3 10^7/M.
Take `NCCC(=O)NCC1=C2CNC(=O)C3=CC(CNC(=O)CCN)=C(CNC(=O)c4cc(CNC(=O)CCN)c(o4)CNC(=O)C4=CC(CNC(=O)CCN)=C(CNC(=O)C(=C1)O2)O4)O3`: the K was 7.71 10^7/M with Quadruplex DNA [11] and 5.2 10^5/M in the data set on Quadruplex DNA [12]. The ΔTm with Quadruplex DNA [13] was 23 °C; in the data set with Quadruplex DNA [14], 25 °C. Moreover, the Ka with Quadruplex DNA [15] was 4.85 10^6/M.
`C/C(=N/Nc1nc2ccccc2s1)c1ccc(-c2cccc(C(=O)NCCCN(C)C)c2)o1`: the Ka in the data set on Quadruplex DNA [1] was 1.3 10^5/M. The ΔTm with Quadruplex DNA [4] was 15.3 °C.
In the case of `CN(C)CCCNC(=O)c1ccc(-n2cc(-c3ccc4c(c3)c3ccccc3n4CCCN(C)C)nn2)cc1`, the values for the IC50 in the data set on HCT-116 and in the data set with HeLa [16] were 3.2 µM and 3.4 µM, respectively. Also, the Ka with Quadruplex DNA [1] is 4.76 10^6/M. In data set [17], the IC50 at 24 h was above 30 µM. Besides, the ΔTm with Quadruplex DNA [4] came to 15.8 °C.
In the case of `CN(C)CCCNC(=O)c1ccc(-n2cc(-c3ccc4[nH]c5ccc(-c6cn(-c7ccc(C(=O)NCCCN(C)C)cc7)nn6)cc5c4c3)nn2)cc1`, the figures for the thermal shift (ΔTm) with Quadruplex DNA [18] and in the data set with Quadruplex DNA [19] were 24 °C and 23.5 °C, respectively.
Regarding `NCC1=C2CNC(=O)C3=CC(CN)=C(CNC(=O)c4cc(CN)c(o4)CNC(=O)C4=CC(CN)=C(CNC(=O)C(=C1)O2)O4)O3`, the K in the data set with Quadruplex DNA [20] is 2.87 10^7/M; in the data set with Quadruplex DNA [11], 2.4 10^7/M; in the data set on Quadruplex DNA [12], 1.86 10^6/M. For the same compound, the ΔTm with Quadruplex DNA [13] and in the data set on Quadruplex DNA [14] was 18 °C in each case.
